Data taken from ChEMBL document CHEMBL4813982, “Novel pyrazolo[4,3-d]pyrimidine microtubule targeting agents (MTAs): Synthesis, structure-activity relationship, in vitro and in vivo evaluation as antitumor agents” (Bioorg Med Chem Lett, 2021).

Experiments:
[1] = test system: NCI/ADR-RES; test: Antiproliferative activity against human NCI/ADR-RES cells overexpressing Pgp; format: functional, cell-based
[2] = molecular target: Tubulin (Homo sapiens) (UniProt P68371+Q9H4B7+P0DPH7+P68366+Q13509+Q71U36+P04350+Q3ZCM7+P07437+P68363+Q9BQE3+Q6PEY2+Q13885+Q9BVA1+Q9BUF5); test: Inhibition of [3H]colchicine binding to tubulin (unknown origin) at 5 uM relative to control; format: protein-complex assay
[3] = molecular target: Tubulin; test: Inhibition of tubulin assembly (unknown origin); format: protein-complex assay, Homo sapiens
[4] = test system: OVCAR-8; test: Antiproliferative activity against human OVCAR-8 cells; format: functional, cell-based

| inhibition [2] | IC50 [3] | IC50 [4] | Compound | IC50 [1] |
| --- | --- | --- | --- | --- |
| 7.1% | > 20 µM | > 5 µM | COc1ccc(Nc2nc(Cl)nc3cnn(C)c23)cc1 | > 5 µM |
| 43% | – | – | COc1ccc2c(c1)CCCN2c1nc(C)nc2c(Cc3ccccc3)c[nH]c12 | – |
